In US11612611B2, “Composition and method for treating muscle cramps containing choline alfoscerate as active ingredient” (NANOSTEM CO., LTD., priority 2017, dated 2023):

Legend:
[1] = reported since 1969; cited from earlier work
[2] = system: patients with muscle cramps; test: Frequency of muscle cramps for a week in patients with muscle cramps, one-month test; conditions: for Frequency of muscle cramps: per week
[3] = system: patients with muscle cramps; test: Pain intensity (11-point PI-NRS) in patients with muscle cramps, one-month test; format: in vivo, human
Description: Patients who experience muscle cramps when stabilized for 3 months without taking exercise were selected as subjects.
The “trigger point injection group (control group)” patients were injected with 5 mL of 0.5% lidocaine at the trigger points (4-5 points), once a week.
(§1) The “choline alfoscerate intravenous administration group (Example 1)” patients were intravenously injected slowly with choline alfoscerate (1 g/4 mL) mixed in 100 mL of physiological saline, twice a week.
(§2) The “choline alfoscerate oral administration group (Example 2)” patients were […] with choline alfoscerate (400 mg/capsule), 3 times a day.
The test period was one month. […] The pain intensity was evaluated according to the 11-point pain intensity numerical rating scale (PI-NRS), where 0=no pain, weakest pain=1 and most severe pain=10. 2-point reduction in the pain intensity was considered clinically significant as reported (Farrar 2001, Rowbotham 2001, Hawker 2011). The pain intensity was measured on the first visit and was compared with the pain intensity 2 weeks (T1) and 4 weeks (T2) after the first drug administration.

[4] = system: patients with muscle cramps; test: Side effects after the treatment in patients with muscle cramps; format: in vivo, human
Description: as §1, §2
Because choline alfoscerate has no effect on the kidney and liver, it is thought that it can be used for people with kidney or liver problems as a therapeutic agent for muscle cramps.

[5] = system: patients with nocturnal calf cramps; conditions: 1-2 mL of 0.25% lidocaine at MTrPs of gastrocnemius muscle; cited from earlier work
[6] = Example 1, intravenous 1 g twice a week, T1 (first 2 weeks)
[7] = Example 1, intravenous 1 g twice a week, T2 (second 2 weeks)
[8] = Example 1, intravenous 1 g twice a week, before drug administration (baseline)
[9] = Example 2, oral 400 mg capsule 3 times a day, T1 (first 2 weeks)
[10] = Example 2, oral 400 mg capsule 3 times a day, T2 (second 2 weeks)
[11] = Example 2, oral 400 mg capsule 3 times a day, before drug administration (baseline)
[12] = intravenous administration group (Example 1), T1
[13] = intravenous administration group (Example 1), T2
[14] = intravenous administration group (Example 1), before drug administration
[15] = oral administration group (Example 2), T1
[16] = oral administration group (Example 2), T2
[17] = oral administration group (Example 2), before drug administration
[18] = trigger point injection (0.5% lidocaine), before drug administration
[19] = trigger point injection, 5 mL 0.5% lidocaine once a week, T1 (first 2 weeks)
[20] = trigger point injection, 5 mL 0.5% lidocaine once a week, T2 (second 2 weeks)
[21] = trigger point injection, 5 mL 0.5% lidocaine once a week, before drug administration (baseline)

For `C=C[C@H]1C[N@@]2CC[C@H]1C[C@H]2[C@H](O)c1ccnc2ccc(OC)cc12` [quinine], the death reported [1] is listed as 93 cases and the “severe side effects reported” value [1] is listed as 665 cases.
For `C[N+](C)(C)CCOP(=O)([O-])OC[C@H](O)CO` [choline alfoscerate], the “Frequency of muscle cramps” value [2, 6] was 1.56 ± 1.34, the “Frequency of muscle cramps” value [2, 7] was 0.88 ± 1.19 and the “Frequency of muscle cramps” value [2, 8] was 4.91 ± 2.40. For the same molecule, the “Frequency of muscle cramps” value [2, 9] was 2.67 ± 1.07, the “Frequency of muscle cramps” value [2, 10] was 1.05 ± 0.70 and the “Frequency of muscle cramps” value [2, 11] was 5.25 ± 1.47. For the same molecule, the “frequency of muscle cramps for a week as compared to control group” value ([2]; intravenous (Example 1), T1, P < 0.05) was “significant decrease”, the “frequency of muscle cramps as compared to control group” value ([2]; intravenous (Example 1), T2) was “significant decrease” and the “frequency of muscle cramps for a week” value [2, 12] was 1.56 times. For the same molecule, the “frequency of muscle cramps for a week” value [2, 13] was 0.88 time, the “frequency of muscle cramps for a week” value [2, 14] was 4.91 times and the “frequency of muscle cramps for a week as compared to control group” value ([2]; oral (Example 2), T1, higher baseline frequency in this group) was “significant increase”. The “frequency of muscle cramps as compared to control group” value ([2]; oral (Example 2), T2) was “significant decrease”, the “frequency of muscle cramps for a week” value [2, 15] was 2.67 times and the “frequency of muscle cramps for a week” value [2, 16] was 1.05 times. The “frequency of muscle cramps for a week” value [2, 17] was 5.25 times, the pain intensity [3, 6] was 2.56 ± 1.49 and the pain intensity [3, 7] was 1.32 ± 0.91. The pain intensity [3, 8] was 6.50 ± 1.26, the pain intensity [3, 9] was 3.94 ± 1.17 and the pain intensity [3, 10] was 1.88 ± 0.92. The pain intensity [3, 11] was 6.31 ± +0.94, the “pain intensity as compared to trigger point injection group (control group)” value ([3]; intravenous (Example 1), at both T1 and T2, P < 0.05) was “significant decrease” and the pain intensity [3, 12] was 2.56 points. It also gave a pain intensity [3, 13] of 1.32 points, a pain intensity [3, 14] of 6.50 points and a pain intensity [3, 15] of 3.94 points. For the same molecule, the pain intensity [3, 16] was 1.88 points, the pain intensity [3, 17] was 6.31 points and the “side effect after the treatment” value ([4]; intravenous administration group (Example 1)) was “no side effect”. The “side effect after the treatment” value ([4]; oral administration group (Example 2)) was “no side effect”.
For `CCN(CC)CC(=O)Nc1c(C)cccc1C` [Control group (TPI), lidocaine], the “frequency of cramps for a week as compared to before the administration” value [5] is listed as “decreased significantly”, the “insomnia severity index (ISI) as compared to before the administration” value [5] is listed as “decreased significantly” and the “intensity of pain as compared to before the administration” value [5] is listed as “decreased significantly”. For the same molecule, the “frequency of muscle cramps for a week” value ([2]; trigger point injection (0.5% lidocaine), T1) was 2.00 times, the “frequency of muscle cramps for a week” value ([2]; trigger point injection (0.5% lidocaine), T2) was 1.43 times and the “frequency of muscle cramps for a week” value [2, 18] was 2.84 times. For the same molecule, the “Frequency of muscle cramps” value [2, 19] was 2.00 ± 0.68, the “Frequency of muscle cramps” value [2, 20] was 1.43 ± 0.53 and the “Frequency of muscle cramps” value [2, 21] was 2.84 ± 0.99. The pain intensity ([3]; trigger point injection (0.5% lidocaine), 2 weeks after first drug administration (T1)) was 3.74 points, the pain intensity ([3]; trigger point injection (0.5% lidocaine), 4 weeks after first drug administration (T2)) was 2.11 points and the pain intensity [3, 18] was 5.34 points. It also gave a pain intensity [3, 19] of 3.74 ± 0.91, a pain intensity [3, 20] of 2.11 ± 0.76 and a pain intensity [3, 21] of 5.34 ± 0.87.
